Assay results taken from the NIST ThermoML archive (doi:10.1016/j.jct.2019.04.006).
Numbers after ± are expanded uncertainties.

Assay: molar heat capacity at constant pressure
Conditions: 101.33 kPa, Crystal, DSC

CSCCC(N)C(=O)O (racemic) [DL-2-amino-4-(methylthio)butanoic acid]
Conditions | molar heat capacity at constant pressure [J/K/mol]
208.72 K | 145.39 ± 5.9
210.22 K | 145.59 ± 5.9
211.72 K | 146.57 ± 6
213.72 K | 147.97 ± 6
216.22 K | 150.38 ± 6.1
218.22 K | 152.14 ± 6.2
221.72 K | 155.91 ± 6.3
224.22 K | 157.49 ± 6.4
226.72 K | 159.11 ± 6.5
227.22 K | 159.42 ± 6.5
230.22 K | 161.3 ± 6.5
233.22 K | 162.93 ± 6.6
236.22 K | 164.63 ± 6.7
239.22 K | 166.6 ± 6.8
243.22 K | 168.79 ± 6.9
247.22 K | 170.83 ± 6.9
252.22 K | 173.41 ± 7
256.72 K | 176.16 ± 7.2
260.72 K | 178.94 ± 7.3
264.22 K | 181.37 ± 7.4
268.72 K | 184.35 ± 7.5
271.22 K | 184.84 ± 7.5
273.22 K | 187.3 ± 7.6
276.72 K | 190.45 ± 7.7
279.72 K | 192.56 ± 7.8
283.22 K | 194.93 ± 7.9
287.22 K | 196.84 ± 8
291.72 K | 199.53 ± 8.1
292.22 K | 199.85 ± 8.1
293.22 K | 200.43 ± 8.1
294.22 K | 201.59 ± 8.2
295.22 K | 202.47 ± 8.2
297.72 K | 205.07 ± 8.3
298.15 K | 205.16 ± 8.3
298.22 K | 205.65 ± 8.3
298.72 K | 205.99 ± 8.4
301.72 K | 208.47 ± 8.5
303.72 K | 209.85 ± 8.5
305.72 K | 211.52 ± 8.6
307.72 K | 212.85 ± 8.7
310.22 K | 214.89 ± 8.7
314.22 K | 218.21 ± 8.9
318.22 K | 222.26 ± 9
321.22 K | 225.76 ± 9.2

O=C(O)c1ccccc1 [benzoic acid]
Conditions | molar heat capacity at constant pressure [J/K/mol]
208.72 K | 104.86 ± 4.3
210.22 K | 105.69 ± 4.3
211.72 K | 106.52 ± 4.3
213.72 K | 107.61 ± 4.4
216.22 K | 108.96 ± 4.4
218.22 K | 110.02 ± 4.5
221.72 K | 111.86 ± 4.5
224.22 K | 113.15 ± 4.6
226.72 K | 114.43 ± 4.7
227.22 K | 114.68 ± 4.7
230.22 K | 116.19 ± 4.7
233.22 K | 117.68 ± 4.8
236.22 K | 119.14 ± 4.8
239.22 K | 120.59 ± 4.9
243.22 K | 122.5 ± 5
247.22 K | 124.38 ± 5
252.22 K | 126.69 ± 5.2
256.72 K | 128.74 ± 5.2
260.72 K | 130.54 ± 5.3
264.22 K | 132.1 ± 5.4
268.72 K | 134.09 ± 5.5
271.22 K | 135.19 ± 5.5
273.22 K | 136.06 ± 5.5
276.72 K | 137.59 ± 5.6
279.72 K | 138.9 ± 5.6
283.22 K | 140.41 ± 5.7
287.22 K | 142.15 ± 5.8
291.72 K | 144.1 ± 5.8
292.22 K | 144.31 ± 5.9
293.22 K | 144.75 ± 5.9
294.22 K | 145.18 ± 5.9
295.22 K | 145.61 ± 5.9
297.72 K | 146.7 ± 6
298.15 K | 146.89 ± 6
298.22 K | 146.92 ± 6
298.72 K | 147.13 ± 6
301.72 K | 148.44 ± 6
303.72 K | 149.32 ± 6.1
305.72 K | 150.19 ± 6.1
307.72 K | 151.07 ± 6.1
310.22 K | 152.18 ± 6.2
314.22 K | 153.96 ± 6.2
318.22 K | 155.75 ± 6.3
321.22 K | 157.11 ± 6.4
